The results in this text go back to patent US20090069302A1 (SMITHKLINE BEECHAM CORPORATION, priority 2006, published 2009).

One assay has as its target T1, AXOR109 (Homo sapiens, UniProt Q8TDU6).
T1 construct: expressed in transfected cells; host or cells: melanophore cells, transfected by electroporation
T1 sequence (Q8TDU6 1-330): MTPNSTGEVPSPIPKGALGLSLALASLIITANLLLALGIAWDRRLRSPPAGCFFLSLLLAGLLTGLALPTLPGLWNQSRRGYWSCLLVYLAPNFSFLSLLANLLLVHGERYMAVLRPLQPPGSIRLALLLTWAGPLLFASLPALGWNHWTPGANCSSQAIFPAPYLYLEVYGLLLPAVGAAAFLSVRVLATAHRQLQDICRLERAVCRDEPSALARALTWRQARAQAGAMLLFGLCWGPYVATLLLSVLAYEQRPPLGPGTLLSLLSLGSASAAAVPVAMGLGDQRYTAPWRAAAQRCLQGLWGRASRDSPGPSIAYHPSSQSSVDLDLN
Description: Human AXOR109/Melanophore Assay. The format is cell-based. Particulars: melanophore assay; for Emax: 1 h; for EC50: AXOR109 transfected melanophores. In a few lines:
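Readout is melanosome dispersion in melanophores electroporated with human AXOR109, in buffer containing 10 nM melatonin and 1% DMSO. Transmittance was read before and after 1 h compound exposure across 11-point 3-fold dilutions. Response was normalized to 200 nM alpha-MSH as system max, and pEC50 was obtained from a Hill fit.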

A further assay has as its system GK rats. The assay can be described thus: Effect on glucose, insulin and GLP-1 secretion in GK rats after oral glucose. Particulars: for GLP-1 changes: active GLP-1, DPPIV inhibitor pretreated; for GLP-1 changes / Insulin changes / Glucose changes: 5 mg/kg intracolonic at −30 min, glucose 1 g/kg oral at 0 min; for Insulin changes: plasma; for Insulin changes / Glucose changes: DPPIV inhibitor pretreated; for Glucose changes: whole blood. On the set-up: Glucose changes / Insulin changes / GLP-1 changes: unit not given here. Format: in vivo, rat. How it is done:
Eight week old conscious GK rats (four per group) were pretreated with a DPPIV inhibitor immediately after control blood sampling at −40 min (black arrow), and dosed with vehicle (0.5% HPMC/0.1% Tween80) or 5 mg/kg Example 14 through intracolonic injection at −30 time point (blue arrow). Glucose (1 g/kg) was given orally at 0 min. Blood samples were collected at −40, 0, 5, 15, 30, 60, 90 and 120 minutes after dosing. Whole blood glucose, plasma insulin, and active GLP-1 were measured (ELISA kits, LINCO). […] The results are listed in Tables 3a, 3b, and 3c, and graphically represented in FIGS. 2a, 2b, and 2c, respectively.

The mark [1] stands for this setting: normalized to alpha-MSH system max.

As usually defined, the Emax is the greatest response seen or fitted, relative to the assay's reference. By EC50 is commonly meant the midpoint of the concentration-response curve.

Regarding `COc1ccc(S(=O)(=O)N(C)CCN(C)S(=O)(=O)c2ccc(OC)c(OC)c2)cc1OC` [Example 14, N,N′-1,2-ethanediylbis[N-methyl-3,4-bis(methyloxy)benzenesulfonamide]], the Emax on AXOR109 (setting [1]) is 51 to 75%. The compound further gave an EC50 at AXOR109 below 126 nM. In addition, the “active GLP-1 and insulin level compared to controls” value in the assay with GK rats (5 mg/kg intracolonic, in words) is “higher level of active GLP-1 and insulin”. For the same compound, the “glucose disposal compared to controls” value in the assay with GK rats (5 mg/kg intracolonic, in words) is reported as “improved glucose disposals”. The GLP-1 changes is 15.08 in the assay with GK rats (0 min); 23.63 in the assay on GK rats (15 min); 19.58 in the assay on GK rats (30 min); 23.63 in the assay on GK rats (60 min); 23.63 with GK rats (90 min); 21.15 in the assay on GK rats (120 min). Besides, the GLP-1 changes in the assay on GK rats (−40 min (before dosing)) is 12.65. Moreover, the Insulin changes is 68.06 in the assay with GK rats (0 min); 366.79 with GK rats (15 min); 289.23 in the assay on GK rats (30 min); 152.33 in the assay on GK rats (60 min); 146.47 with GK rats (90 min); 158.31 in the assay on GK rats (120 min). Also, the Insulin changes in the assay with GK rats (−40 min (before dosing)) turned out to be 85.82. The Glucose changes was determined as 74.25 in the assay on GK rats (0 min); 173.75 in the assay with GK rats (15 min); 174.75 with GK rats (30 min); 122.50 in the assay with GK rats (60 min); 110.00 with GK rats (90 min); 114.50 in the assay with GK rats (120 min). In addition, the Glucose changes in the assay on GK rats (−40 min (before dosing)) is on record as 106.75.
Compound `COc1ccc(S(=O)(=O)N2CCC(=O)N(S(=O)(=O)c3ccc(OC)c(OC)c3)CC2)cc1OC` [Example 28, 1,4-bis{[3,4-bis(methyloxy)phenyl]sulfonyl}hexahydro-5H-1,4-diazepin-5-one] returned an Emax on AXOR109 (setting [1]) of 51 to 75%. The compound also showed an EC50 on AXOR109 of 126 to 1000 nM.
`COc1ccc(S(=O)(=O)N2CCN(S(=O)(=O)c3ccc(OC)c(OC(F)(F)F)c3)CC2)cc1OC` [Example 91] displayed an Emax on AXOR109 (setting [1]) of 76 to 100%. This compound showed a concentration for a half-maximal effect (EC50) on AXOR109 of 126 to 1000 nM.
The corresponding values for `COc1ccc(S(=O)(=O)N2CCN(S(=O)(=O)c3ccc(OC)c(OC)c3)CC(F)C2)cc1OC` [Example 52, 1,4-bis{[3,4-bis(methyloxy)phenyl]sulfonyl}-6-fluorohexahydro-1H-1,4-diazepine] are 76 to 100% and 126 to 1000 nM.
`COc1ccc(S(=O)(=O)N2C[C@@H](C)N(S(=O)(=O)c3ccc(OC)c(OC)c3)[C@@H](C)C2)cc1OC` [Example 20, 1,4-bis{[3,4-bis(methyloxy)phenyl]sulfonyl}-2,6-cis-dimethylpiperazine] showed an EC50 at AXOR109 of 1260 to 10000 nM. Also, the “% Max” value on AXOR109 (setting [1]) is given as “** (“**” = 51% to 75%)”.
Compound `COc1ccc(S(=O)(=O)N2C[C@H](C)N(S(=O)(=O)c3ccc(OC)c(OC)c3)[C@@H](C)C2)cc1OC` [Example 21, (2S,6S)-1,4-bis{[3,4-bis(methyloxy)phenyl]sulfonyl}-2,6-dimethylpiperazine] yielded an Emax at AXOR109 (setting [1]) of 51 to 75%. On AXOR109, this compound gave an EC50 of 126 to 1000 nM.
On to `COc1ccc(S(=O)(=O)N2CCN(S(=O)(=O)c3ccc(OC)c(OC)c3)C(=O)C2=O)cc1OC` [Example 27, 1,4-bis{[3,4-bis(methyloxy)phenyl]sulfonyl}-2,3-piperazinedione], for which the Emax on AXOR109 (setting [1]) lay in the range of 51 to 75%. This compound also showed an EC50 at AXOR109 of 1260 to 10000 nM.
In the same order, the values of `COc1ccc(S(=O)(=O)N2CCN(S(=O)(=O)c3ccc(OC)c(OC)c3)C(C)(C)C2)cc1OC` [Example 50, 1,4-bis{[3,4-bis(methyloxy)phenyl]sulfonyl}-2,2-dimethylpiperazine] are 76 to 100% and 126 to 1000 nM.
The corresponding values for `COc1ccc(S(=O)(=O)N2C[C@H](C)N(S(=O)(=O)c3ccc(OC)c(OC)c3)C[C@@H]2C)cc1` [Example 72, (2S,5S)-1-{[3,4-bis(methyloxy)phenyl]sulfonyl}-2,5-dimethyl-4-{[4-(methyloxy)phenyl]sulfonyl}piperazine] are above 100% and 126 to 1000 nM.
For the compound `COc1ccc(S(=O)(=O)N(C)CCN(C)S(=O)(=O)c2ccc3c(c2)n(C)c(=O)n3C)cc1OC` [Example 65, N-methyl-N-{2-[{[3,4-bis(methyloxy)phenyl]sulfonyl}(methyl)amino]ethyl}-1,3-dimethyl-2-oxo-2,3-dihydro-1H-benzimidazole-5-sulfonamide], on AXOR109 (setting [1]), the Emax is 51 to 75%. The same compound had an EC50 on AXOR109 of 1260 to 10000 nM.
For the compound `COc1ccc(S(=O)(=O)N2CCN(S(=O)(=O)c3ccc(-c4cnco4)cc3)CC2)cc1OC` [Example 2, 1-{[3,4-bis(methyloxy)phenyl]sulfonyl}-4-{[4-(1,3-oxazol-5-yl)phenyl]sulfonyl}piperazine], at AXOR109 (setting [1]), the maximum response (Emax) lay within 51 to 75%. Moreover, the EC50 on AXOR109 was 126 to 1000 nM.
In the same order, the values of `CCCN(C[C@H]1CCCN1S(=O)(=O)c1ccc(OC)c(OC)c1)S(=O)(=O)c1ccc(OC)c(OC)c1` [Example 99, N-[((2R)-1-{[3,4-bis(methyloxy)phenyl]sulfonyl}-2-pyrrolidinyl)methyl]-3,4-bis(methyloxy)-N-propylbenzenesulfonamide] are 76 to 100% and below 126 nM.
Consider `COc1ccc(S(=O)(=O)N2CCCN(S(=O)(=O)c3ccc(OC)c(OC(F)(F)F)c3)CC2)cc1OC` [Example 30, 1-{[3,4-bis(methyloxy)phenyl]sulfonyl}-4-({4-(methyloxy)-3-[(trifluoromethyl)oxy]phenyl}sulfonyl)hexahydro-1H-1,4-diazepine], for which the Emax at AXOR109 (setting [1]) is 76 to 100%. Further, the EC50 on AXOR109 is 1260 to 10000 nM.
The corresponding values for `COc1ccc(S(=O)(=O)N(C[C@H]2CCCN2S(=O)(=O)c2ccc(OC)c(OC)c2)C(C)C)cc1OC` [Example 100, N-[((2R)-1-{[3,4-bis(methyloxy)phenyl]sulfonyl}-2-pyrrolidinyl)methyl]-N-(1-methylethyl)-3,4-bis(methyloxy)benzenesulfonamide] are above 100% and 126 to 1000 nM.
For `COc1ccc(S(=O)(=O)N[C@@H]2CCN(S(=O)(=O)c3ccc(OC)c(OC)c3)C2)cc1OC` [Example 77, N-((3R)-1-{[3,4-bis(methyloxy)phenyl]sulfonyl}-3-pyrrolidinyl)-3,4-bis(methyloxy)benzenesulfonamide], on AXOR109 (setting [1]), the Emax was 76 to 100%. In addition, the EC50 on AXOR109 is 1260 to 10000 nM.
On to `COc1ccc(S(=O)(=O)N2CCCN(S(=O)(=O)c3ccc4c(c3)OCCO4)CC2)cc1OC` [Example 8, 1-{[3,4-bis(methyloxy)phenyl]sulfonyl}-4-(2,3-dihydro-1,4-benzodioxin-6-ylsulfonyl)hexahydro-1H-1,4-diazepine], for which the Emax on AXOR109 (setting [1]) lay in the range of 51 to 75%. Moreover, the EC50 on AXOR109 was 1260 to 10000 nM.
